Test results as given in the CheMixHub viscosity set.
“And” between values parts separate entries of the source, which are not always exact repeats. Equal entries are not always repeated.

Assay: xn = mol fraction of the nth substance listed
Conditions: 101.3 kPa

O=[N+]([O-])c1ccccc1 + CCCCC
Conditions	viscosity
293.15 K, x1 = 0.0998	0.272 mPa·s
293.15 K, x1 = 0.1994	0.336 mPa·s
293.15 K, x1 = 0.5984	0.79 mPa·s
293.15 K, x1 = 0.6995	0.972 mPa·s
293.15 K, x1 = 0.7997	1.221 mPa·s
293.15 K, x1 = 0.9	1.549 mPa·s
297.15 K, x1 = 0.0998	0.262 mPa·s
297.15 K, x1 = 0.1994	0.322 mPa·s
297.15 K, x1 = 0.299	0.42 mPa·s
297.15 K, x1 = 0.3491	0.52 mPa·s
297.15 K, x1 = 0.399	0.596 mPa·s
297.15 K, x1 = 0.4589	0.603 mPa·s
297.15 K, x1 = 0.494	0.623 mPa·s
297.15 K, x1 = 0.5984	0.748 mPa·s
297.15 K, x1 = 0.6995	0.921 mPa·s
297.15 K, x1 = 0.7997	1.15 mPa·s
297.15 K, x1 = 0.9	1.452 mPa·s
297.16 K, x1 = 0.383	0.62 mPa·s
297.17 K, x1 = 0.299	0.42 mPa·s
297.17 K, x1 = 0.3491	0.517 mPa·s
297.17 K, x1 = 0.383	0.619 mPa·s and 0.617 mPa·s and 0.61 mPa·s
297.17 K, x1 = 0.3832	0.614 mPa·s
297.17 K, x1 = 0.399	0.591 mPa·s
297.17 K, x1 = 0.4589	0.602 mPa·s
297.17 K, x1 = 0.494	0.623 mPa·s
297.18 K, x1 = 0.383	0.604 mPa·s
297.2 K, x1 = 0.383	0.593 mPa·s
297.23 K, x1 = 0.383	0.583 mPa·s
297.29 K, x1 = 0.383	0.565 mPa·s
297.34 K, x1 = 0.383	0.558 mPa·s
297.44 K, x1 = 0.383	0.546 mPa·s
297.6 K, x1 = 0.383	0.535 mPa·s
297.65 K, x1 = 0.0998	0.261 mPa·s
297.65 K, x1 = 0.1994	0.321 mPa·s
297.65 K, x1 = 0.299	0.415 mPa·s
297.65 K, x1 = 0.3491	0.488 mPa·s
297.65 K, x1 = 0.3832	0.532 mPa·s
297.65 K, x1 = 0.399	0.55 mPa·s
297.65 K, x1 = 0.4589	0.592 mPa·s
297.65 K, x1 = 0.494	0.616 mPa·s
297.65 K, x1 = 0.5984	0.743 mPa·s
297.65 K, x1 = 0.6995	0.915 mPa·s
297.65 K, x1 = 0.7997	1.142 mPa·s
297.65 K, x1 = 0.9	1.441 mPa·s
298 K, x1 = 0.383	0.52 mPa·s
298.15 K, x1 = 0.0998	0.26 mPa·s
298.15 K, x1 = 0.1994	0.319 mPa·s
298.15 K, x1 = 0.299	0.411 mPa·s
298.15 K, x1 = 0.3491	0.476 mPa·s
298.15 K, x1 = 0.3832	0.515 mPa·s
298.15 K, x1 = 0.399	0.536 mPa·s
298.15 K, x1 = 0.4589	0.584 mPa·s
298.15 K, x1 = 0.494	0.61 mPa·s
298.15 K, x1 = 0.5984	0.738 mPa·s
298.15 K, x1 = 0.6995	0.909 mPa·s
298.15 K, x1 = 0.7997	1.134 mPa·s
298.15 K, x1 = 0.9	1.43 mPa·s
298.76 K, x1 = 0.383	0.504 mPa·s
299.15 K, x1 = 0.0998	0.257 mPa·s
299.15 K, x1 = 0.1994	0.316 mPa·s
299.15 K, x1 = 0.299	0.404 mPa·s
299.15 K, x1 = 0.3491	0.461 mPa·s
299.15 K, x1 = 0.3832	0.498 mPa·s
299.15 K, x1 = 0.399	0.518 mPa·s
299.15 K, x1 = 0.4589	0.571 mPa·s
299.15 K, x1 = 0.494	0.6 mPa·s
299.15 K, x1 = 0.5984	0.729 mPa·s
299.15 K, x1 = 0.6995	0.897 mPa·s
299.15 K, x1 = 0.7997	1.118 mPa·s
299.15 K, x1 = 0.9	1.406 mPa·s
299.88 K, x1 = 0.383	0.489 mPa·s
302.28 K, x1 = 0.383	0.466 mPa·s
305.15 K, x1 = 0.0998	0.245 mPa·s
305.15 K, x1 = 0.1994	0.298 mPa·s
305.15 K, x1 = 0.299	0.373 mPa·s
305.15 K, x1 = 0.3491	0.417 mPa·s
305.15 K, x1 = 0.3832	0.447 mPa·s
305.15 K, x1 = 0.399	0.466 mPa·s
305.15 K, x1 = 0.4589	0.52 mPa·s
305.15 K, x1 = 0.494	0.551 mPa·s
305.15 K, x1 = 0.5984	0.677 mPa·s
305.15 K, x1 = 0.6995	0.831 mPa·s
305.15 K, x1 = 0.7997	1.031 mPa·s
305.15 K, x1 = 0.9	1.284 mPa·s
305.99 K, x1 = 0.383	0.442 mPa·s
313.15 K, x1 = 0.0998	0.229 mPa·s
313.15 K, x1 = 0.1994	0.277 mPa·s
313.15 K, x1 = 0.299	0.342 mPa·s
313.15 K, x1 = 0.3491	0.38 mPa·s
313.15 K, x1 = 0.3832	0.403 mPa·s
313.15 K, x1 = 0.399	0.424 mPa·s
313.15 K, x1 = 0.4589	0.471 mPa·s
313.15 K, x1 = 0.494	0.503 mPa·s
313.15 K, x1 = 0.5984	0.616 mPa·s
313.15 K, x1 = 0.6995	0.753 mPa·s
313.15 K, x1 = 0.7997	0.929 mPa·s
313.15 K, x1 = 0.9	1.143 mPa·s
